Patent US20260199484A1, “PROTAC DEGRADERS OF MLLT1 AND/OR MLLT3” (DARK BLUE THERAPEUTICS LTD, priority 2024, published 2026)

How the values were obtained:
MLLT1 = target: T1, MLLT1 (Homo sapiens, UniProt Q03111); test: MLLT1 DC50 and Dmax determination in MV4-11 cells (JESS, 4 h); type: cell-based; set-up: endogenous in cells; host or cells: MV4-11 (ATCC CRL-9591); conditions: MLLT1 degradation
T1 sequence (Q03111 1-559): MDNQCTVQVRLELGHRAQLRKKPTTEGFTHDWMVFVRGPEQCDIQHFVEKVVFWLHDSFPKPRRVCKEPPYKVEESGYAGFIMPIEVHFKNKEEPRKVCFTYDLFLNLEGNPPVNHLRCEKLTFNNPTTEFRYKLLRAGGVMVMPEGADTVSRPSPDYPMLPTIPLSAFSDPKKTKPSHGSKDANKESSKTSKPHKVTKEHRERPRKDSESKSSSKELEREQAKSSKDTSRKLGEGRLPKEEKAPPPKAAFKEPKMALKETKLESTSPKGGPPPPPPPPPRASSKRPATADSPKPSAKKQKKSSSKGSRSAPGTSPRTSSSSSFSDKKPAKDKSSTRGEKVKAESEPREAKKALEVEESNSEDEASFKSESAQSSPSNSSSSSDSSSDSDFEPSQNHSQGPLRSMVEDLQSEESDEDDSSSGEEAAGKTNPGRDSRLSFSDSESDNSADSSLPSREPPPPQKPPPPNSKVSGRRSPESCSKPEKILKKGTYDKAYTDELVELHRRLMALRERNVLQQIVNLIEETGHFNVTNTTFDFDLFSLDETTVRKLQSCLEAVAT
Description: MLLT1 degradation efficacy of compounds was tested in an automated chemiluminescent detection system (JESS, Cat #004-650). MV4-11 (#CRL-9591, ATCC) were seeded at a density of 1.2 million cells/well in a non-treated 6-well cell culture plate in 2.4 mL of complete medium (IMDM+10% FBS+1× Penicillin-Streptomycin). 10 mM DMSO stocks were prepared, and cells were treated with eight concentrations of test compounds, starting from 100 nM, 5-fold dilution, at a final DMSO concentration of 0.1% and incubated for 4 h at 37° C., 5% CO2. Post incubation, cells were centrifuged, washed with HBSS and lysed in 60 μL of RIPA buffer supplemented with Protease inhibitors (sc-24948; Santa Cruz). Protein estimation was done using BCA protein assay kit (23228; Pierce). 4 gg protein lysate (4 μL of 1 μg/μL lysate) was loaded into each well of the JESS cartridge (SM-W004; Bio-techne) and the JESS run was performed using 1:900 dilution of anti-human MLLT1 antibody (ABE2596; Merck) and 1:1200 dilution of anti-human GAPDH antibody (2118; Cell signaling technology) with anti-rabbit secondary detection module (DM-001; Bio-Techne). Post run, data was analysed using “Compass for SW” software for chemiluminescent detection. Peak fit was done using “dropped lines” method. Peak area for MLLT1 and GAPDH was used for the calculation of MLLT1 degradation with respect to DMSO control. Data was shown as “% degradation”. % Degradation was plotted against the respective doses (test compound concentration) and dose-response curve (DRC) was generated using four-parameter logistic equation (non-linear regression). Following parameters for each DRC was captured: DC50 (concentration in nM at which degradation is 50%, interpolated from standard curve and transformed to linear scale), Dmax (maximum % degradation observed). DC50 and Dmax data are captured in Table 7 for Example 1 and Example 110, which is a comparative example.

MV4-11 cells = test: MV4-11 cellular proliferative assay, Assay Format B (CTG 2.0, 168 h); type: cell-based; conditions: Homo sapiens, Assay Method B, Table 7, read-out: MV4-11 Antiproliferation IC50
Procedure, shortened: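 Cells seeded at 600/well in IMDM + 10% FBS, incubated overnight, then exposed 168 h (7 days) at 37 °C to 10 concentrations, 3-fold dilutions from 1 uM or 100 nM top dose (0.3% DMSO final). Viability by CTG 2.0 luminescence as % of DMSO control; curves fitted by four-parameter logistic regression.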

DC50 (MLLT1): 41 nM
Dmax (MLLT1; maximum % degradation observed): 58%
IC50 (MV4-11 cells): > 1000 nM
Compound: Cc1nn(CCCCCCCC#Cc2cccc3c2CN(C2CCC(=O)NC2=O)C3=O)c2cc(C(=O)Nc3cc4[nH]c(CN5CCCC5)cc4cn3)ccc12 (stereo not drawn) [Example 110, 1-(9-(2-(2,6-dioxopiperidin-3-yl)-1-oxoisoindolin-4-yl)non-8-yn-1-yl)-3-methyl-N-(2-(pyrrolidin-1-ylmethyl)-1H-pyrrolo[3,2-c]pyridin-6-yl)-1H-indazole-6-carboxamide]
